From the supplement of paper PMC11061612

Experiments:
Assay in all cases: Bliss excess, mean over the matrix (fraction); higher = more synergy
[1] = test system: COLO-680N (Esophageal Squamous Cell Carcinoma)
Procedure, shortened: (§1)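 Cell lines in DMEM/F12 or RPMI with 10% FBS were plated in 1536-well plates, held 24 hours at 37°C, 5% CO2, then given two-drug dose matrices for 72 hours (DMSO typically 0.2%). Viability was read by CellTiter-Glo 2.0 luminescence and scaled as inhibition from 0 (vehicle wells) to 1 (blank wells). Combination Emax is the second-highest inhibition in the matrix; Bliss excess is observed combination effect minus expected EA + EB − EA·EB, EA and EB being single-agent effects.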

WM793B (Melanoma) = test system: WM793B (Melanoma)
Procedure, shortened: as §1

A2058 (Melanoma) = test system: A2058 (Melanoma)
Procedure, shortened: as §1

[2] = test system: RCM-1 (Colorectal Carcinoma)
Procedure, shortened: as §1

[3] = test system: MKN45 (Gastric Carcinoma)
Procedure, shortened: as §1

[4] = test system: TE-8 (Esophageal Squamous Cell Carcinoma)
Procedure, shortened: as §1

[5] = test system: HEC-1 (Endometrial Carcinoma)
Procedure, shortened: as §1

[6] = test system: PANC-03-27 (Pancreatic Carcinoma)
Procedure, shortened: as §1

LN-229 (Glioblastoma) = test system: LN-229 (Glioblastoma)
Procedure, shortened: as §1

SF539 (Glioblastoma) = test system: SF539 (Glioblastoma)
Procedure, shortened: as §1

[7] = test system: RERF-GC-1B (Gastric Carcinoma)
Procedure, shortened: as §1

[8] = test system: SU-DHL-10 (B-Cell Non-Hodgkin's Lymphoma)
Procedure, shortened: as §1

[9] = test system: PC-3_[JPC-3] (Lung Adenocarcinoma)
Procedure, shortened: as §1

[10] = test system: LB996-RCC (Kidney Carcinoma)
Procedure, shortened: as §1

[11] = test system: 23132-87 (Gastric Carcinoma)
Procedure, shortened: as §1

[12] = test system: NCI-H23 (Lung Adenocarcinoma)
Procedure, shortened: as §1

[13] = test system: KE-37 (T-Lymphoblastic Leukemia)
Procedure, shortened: as §1

[14] = test system: RKN (Other Solid Carcinomas)
Procedure, shortened: as §1

[15] = test system: HCT-15 (Colorectal Carcinoma)
Procedure, shortened: as §1

[16] = test system: RERF-LC-Sq1 (Squamous Cell Lung Carcinoma)
Procedure, shortened: as §1

Structure (SMILES) | Bliss excess [1] | Bliss excess (WM793B (Melanoma)) | Bliss excess (A2058 (Melanoma)) | Bliss excess [2] | Bliss excess [3] | Bliss excess [4] | Bliss excess [5] | Bliss excess [6] | Bliss excess (LN-229 (Glioblastoma)) | Bliss excess (SF539 (Glioblastoma)) | Bliss excess [7] | Bliss excess [8] | Bliss excess [9] | Bliss excess [10] | Bliss excess [11] | Bliss excess [12] | Bliss excess [13] | Bliss excess [14] | Bliss excess [15] | Bliss excess [16]
CC1(C)CCC(CN2CCN(c3ccc(C(=O)NS(=O)(=O)c4ccc(NCC5CCOCC5)c([N+](=O)[O-])c4)c(Oc4cnc5[nH]ccc5c4)c3)CC2)=C(c2ccc(Cl)cc2)C1 [Venetoclax] + C=CCn1c(=O)c2cnc(Nc3ccc(N4CCN(C)CC4)cc3)nc2n1-c1cccc(C(C)(C)O)n1 [AZD1775] (first compound max 1 µM, partner max 1 µM) | -0.0402 | 0.0101 | -0.0886 | 0.0294 | -0.0402 | -0.0071 | -0.0569 | 0.035 | -0.0083 | -0.0234 | -0.112 | -0.018 | -0.0736 | -0.0466 | -0.0277 | -0.0533 | 0.0083 | -0.0729 | -0.0265 | -0.0437
CC1(C)CCC(CN2CCN(c3ccc(C(=O)NS(=O)(=O)c4ccc(NCC5CCOCC5)c([N+](=O)[O-])c4)c(Oc4cnc5[nH]ccc5c4)c3)CC2)=C(c2ccc(Cl)cc2)C1 [Venetoclax] + CCN(CCO)CCCOc1ccc2c(Nc3cc(CC(=O)Nc4cccc(F)c4)[nH]n3)ncnc2c1 [AZD2811] (first compound max 1 µM, 7x7, partner max 1 µM) | -0.0166 | 0.0206 | 0.0655 | -0.0144 | -0.066 | 0.0482 | -0.0262 | -0.028 | -0.014 | 0.0468 | 0.0028 | -0.0844 | -0.095 | -0.0133 | -0.0136 | -0.0051 | -0.0266 | -0.011 | 0.0051 | 0.0197
CC1(C)CCC(CN2CCN(c3ccc(C(=O)NS(=O)(=O)c4ccc(NCC5CCOCC5)c([N+](=O)[O-])c4)c(Oc4cnc5[nH]ccc5c4)c3)CC2)=C(c2ccc(Cl)cc2)C1 [Venetoclax] + CN(C)CCCOc1ccc(-c2ccc3ncc4c(c3c2)n(C2CCOCC2)c(=O)n4C)cn1 [AZD0156] (first compound max 1 µM, 7x7, partner max 1 µM) | -0.014 | -0.0499 | 0.0014 | -0.0086 | -0.095 | -0.0574 | 0.0064 | -0.0876 | -0.007 | 0.0126 | -0.0356 | -0.0043 | -0.103 | -0.0398 | -0.0015 | -0.0114 | -0.0036 | -0.0862 | -0.0192 | -0.0401
CC1(C)CCC(CN2CCN(c3ccc(C(=O)NS(=O)(=O)c4ccc(NCC5CCOCC5)c([N+](=O)[O-])c4)c(Oc4cnc5[nH]ccc5c4)c3)CC2)=C(c2ccc(Cl)cc2)C1 [Venetoclax] + COc1cc(Nc2ncc3c(n2)-c2ccc(Cl)cc2C(c2c(F)cccc2OC)=NC3)ccc1C(=O)O [Alisertib] (first compound max 1 µM, 7x7, partner max 10 µM) | -0.0427 | -0.0223 | -0.0871 | -0.0717 | -0.0645 | 0.0171 | -0.0385 | -0.0236 | -0.041 | 0.0396 | -0.0274 | 0.0409 | -0.0502 | -0.0096 | -0.0303 | 0.14 | -0.0545 | -0.0516 | -0.0034 | -0.0289
CC1(C)CCC(CN2CCN(c3ccc(C(=O)NS(=O)(=O)c4ccc(NCC5CCOCC5)c([N+](=O)[O-])c4)c(Oc4cnc5[nH]ccc5c4)c3)CC2)=C(c2ccc(Cl)cc2)C1 [Venetoclax] + C[C@@H]1COCCN1C2=NC(=NC(=C2)C3(CC3)[S@](=N)(=O)C)C4=C5C=CNC5=NC=C4 [AZD6738] (first compound max 1 µM, 7x7, partner max 10 µM) | -0.0004 | -0.0044 | -0.0008 | -0.0542 | -0.0526 | -0.0603 | -0.0267 | -0.0556 | -0.0601 | -0.0339 | -0.0579 | 0.0138 | -0.0438 | -0.066 | -0.0422 | 0.0157 | 0.0293 | -0.058 | -0.0084 | -0.0476
CC1(C)CCC(CN2CCN(c3ccc(C(=O)NS(=O)(=O)c4ccc(NCC5CCOCC5)c([N+](=O)[O-])c4)c(Oc4cnc5[nH]ccc5c4)c3)CC2)=C(c2ccc(Cl)cc2)C1 [Venetoclax] + C[C@@H](Nc1cc(F)cc(F)c1)c1cc(C(=O)N(C)C)cc2c(=O)cc(N3CCOCC3)oc12 [AZD8186] (first compound max 1 µM, 7x7, partner max 3 µM) | -0.0276 | -0.016 | -0.0031 | -0.0495 | -0.057 | -0.0522 | -0.0336 | -0.0415 | -0.0267 | -0.0062 | -0.028 | 0.0052 | -0.0326 | 0.0035 | -0.036 | 0.007 | 0.0385 | -0.0289 | -0.0184 | -0.0242
CC1(C)CCC(CN2CCN(c3ccc(C(=O)NS(=O)(=O)c4ccc(NCC5CCOCC5)c([N+](=O)[O-])c4)c(Oc4cnc5[nH]ccc5c4)c3)CC2)=C(c2ccc(Cl)cc2)C1 [Venetoclax] + Cc1cc2ncnn2cc1Nc1ncc2c(n1)n(C1CCOCC1)c(=O)n2C [AZD7648] (first compound max 1 µM, 7x7, partner max 10 µM) | -0.0293 | 0.0156 | 0.007 | -0.0533 | -0.0576 | -0.0121 | -0.0286 | -0.043 | -0.0174 | 0.0069 | -0.0276 | -0.0139 | -0.0445 | -0.0258 | -0.0008 | -0.0172 | 0.0325 | -0.062 | -0.0043 | -0.0268
CC1(C)CCC(CN2CCN(c3ccc(C(=O)NS(=O)(=O)c4ccc(NCC5CCOCC5)c([N+](=O)[O-])c4)c(Oc4cnc5[nH]ccc5c4)c3)CC2)=C(c2ccc(Cl)cc2)C1 [Venetoclax] + Cn1cnc2c(F)c(Nc3ccc(Br)cc3Cl)c(C(=O)NOCCO)cc21 [Selumetinib] (first compound max 1 µM, 7x7, partner max 3 µM) | -0.0243 | -0.0191 | -0.005 | -0.0369 | -0.0574 | -0.0282 | -0.0315 | 0.0047 | -0.0372 | 0.0003 | 0.0095 | -0.0123 | -0.0715 | -0.0209 | -0.0507 | -0.0208 | -0.0013 | -0.0034 | -0.0231 | -0.0467
